Holding throughout (assay type): functional
In test [1] the test system is RAW264.7. In words: Antiinflammatory activity in mouse RAW264.7 cells assessed as inhibition of LPS-stimulated iNOS protein expression by measuring iNOS protein level at 10 uM by Western blot relative to untreated control. (In western blotting, separated proteins are transferred to a membrane and probed.)
Test [2] concerns WiDr. As to the kind of experiment: Cytotoxicity against human WiDr cells by MTT assay. The following applies: read-out: ED50 (the source's name).
In test [3] the test system is HEp-2. In words: Cytotoxicity against human Hep2 cells by MTT assay. The settings on record: read-out: ED50 (the source's name).
In test [4] the test system is Daoy. In words: Cytotoxicity against human DaOY cells by MTT assay. The settings on record: read-out: ED50 (the source's name).
Test [5] has as its system MCF7. As to the kind of experiment: Cytotoxicity against human MCF7 cells by MTT assay. The following applies: read-out: ED50 (the source's name). (Tetrazolium assays rely on reduction of a dye to a coloured formazan, in cell work by metabolically active cells.)
Test [6] has as its system RAW264.7. In words: Antiinflammatory activity in mouse RAW264.7 cells assessed as inhibition of LPS-stimulated COX2 protein expression by measuring COX2 protein level at 10 uM by Western blot relative to untreated control. The arrangement: scale not given: the % may be the effect or the level left.

SMILES strings stand for the structures. Values after ≈ are worked out from the molar mass of the structure shown.

On to `C=C1C(=O)O[C@H]2[C@H]1C[C@@H]1O[C@@]1(C)CC/C=C(\C)CC/C=C(\C)[C@@H]2OC(C)=O`, for which, in test [1], the “iNOS protein level relative to control” value was 6.2%.

Regarding `CO[C@@]12[C@H](COC(N)=O)C3=C(C(=O)C(C)=C(N)C3=O)N1C[C@@H]1N[C@@H]12` [MITOMYCIN], the EC50 is 0.15 µg/mL (≈ 0.449 µM) in test [2], 0.07 µg/mL (≈ 0.209 µM) in test [3], 0.14 µg/mL (≈ 0.419 µM) in test [4] and 0.14 µg/mL (≈ 0.419 µM) in test [5].

As for `C=C1C(=O)O[C@@H]2[C@@H]1C[C@H](O)[C@@]1(C)CC[C@@H](O1)C(=C)CC/C=C(\C)[C@@H]2OC(C)=O` [SARCOCRASSOCOLIDE A], the EC50 in test [2] was 4.2 µg/mL (≈ 10.8 µM); in test [3] it was 6.2 µg/mL (≈ 15.9 µM); in test [4], 8.8 µg/mL (≈ 22.5 µM); in test [5], 4.2 µg/mL (≈ 10.8 µM). The “iNOS protein level relative to control” value in test [1] worked out at 13.7%.

As for `C=C1CC/C=C(\C)[C@H](OC(C)=O)[C@@H]2OC(=O)C(=C)[C@H]2C[C@H](O)[C@@]2(C)CC[C@@H]1O2` [SARCOCRASSOCOLIDE B], the EC50 in test [2] is 3.2 µg/mL (≈ 8.2 µM); in test [3], 4.5 µg/mL (≈ 11.5 µM); in test [4], 5.6 µg/mL (≈ 14.3 µM); in test [5] it was 3.2 µg/mL (≈ 8.2 µM). For the same compound, the “iNOS protein level relative to control” value in test [1] worked out at 13.3%.

Turning to `C=C1C(=O)O[C@H]2C/C(C)=C/CCC(=C)[C@H]3CC[C@@](C)(O3)[C@@H](O)C[C@H]12` [SARCOCRASSOCOLIDE C], the EC50 in test [2] was found to be 1.2 µg/mL (≈ 3.61 µM); in test [3] it was 2.6 µg/mL (≈ 7.82 µM); in test [4], 3.2 µg/mL (≈ 9.63 µM); in test [5], 2 µg/mL (≈ 6.02 µM). Besides, in test [1], the “iNOS protein level relative to control” value came to 4.6%.

`C=C1CC/C=C(\C)C[C@@H]2OC(=O)C(=C)[C@H]2C[C@H](O)[C@@]2(C)CC[C@@H]1O2` [SARCOCRASSOCOLIDE D]: the EC50 worked out at 1.8 µg/mL (≈ 5.41 µM) in test [2], 4 µg/mL (≈ 12 µM) in test [3], 5.4 µg/mL (≈ 16.2 µM) in test [4] and 4.1 µg/mL (≈ 12.3 µM) in test [5]. Besides, in test [1], the “iNOS protein level relative to control” value is given as 7%.

As for `C=C1C(=O)O[C@@H]2C/C(C)=C/CC/C(C)=C/CC[C@]3(C)O[C@H]3C[C@@H]12` [SARCOCRASSOLIDE], in test [6], the Activity was 3.9%. In test [1], the “iNOS protein level relative to control” value worked out at 1.1%.

The values are drawn from ChEMBL document CHEMBL1157566, “Cytotoxic and anti-inflammatory cembranoids from the Dongsha Atoll soft coral Sarcophyton crassocaule” (2010).
